# Reference: PubChem BioAssay AID1259333 (Broad Institute, 2017)
# The source made the active and inactive calls. No rule for the calls is given here; tested in parental BL2 cells.
# Tested on: cytotoxicity, CellTiter-Glo ATP luminescence
# Assay: cell cytotoxicity, dose response, cytotoxicity control, CellTiter-Glo (AID 1259333)
row,Compound,AC50
1,Fc1ccccc1CNCCC(Cc1ccccc1)c1ccc2c(c1)OCO2 (stereo not drawn),> 20 µM (inactive)
2,C[C@H]1O[C@@H](O[C@H]2[C@@H](O)C[C@H](O[C@H]3[C@@H](O)C[C@H](O[C@H]4CC[C@]5(C)C6CC[C@]7(C)[C@@H](C8=CC(=O)OC8)CC[C@]7(O)C6CC[C@@H]5C4)O[C@@H]3C)O[C@@H]2C)C[C@H](O)[C@@H]1O (stereo partly drawn),2.2 µM
3,[O-]C(=C(C(=S)Nc1cccc2ccccc12)[n+]1ccccc1)c1ccc2c(c1)OCCO2,> 7 µM (inactive)
4,COC(=O)c1ccc2nc(NC(=O)C(C)(C)C)sc2c1,7.83 µM
5,CCN1/C(=C/c2sc(-c3ccccc3C)c[n+]2C)Sc2ccccc21,9.06 µM
6,C[C@H](CO)N1C[C@H](C)[C@H](CN(C)C(=O)Nc2cccc(Cl)c2Cl)OCc2ccccc2-c2c(n(C)c3ccccc23)C1=O,2.51 µM
7,COc1ccc(-c2cc(-c3ccccc3)c(C#N)c(S(C)=O)n2)cc1 (stereo not drawn),3 µM
8,CC(C)c1ccc(NC(=O)Nc2nc(C(N)COCc3ccccc3)cs2)cc1 (stereo not drawn),4.21 µM
9,N#C[C@@H]1[C@H](c2ccc(C#CC3CCCC3)cc2)[C@@H](CO)N1C(=O)Nc1ccc(F)cc1,> 20 µM (inactive)
10,O=C1NC2c3c(I)sc(I)c3C(=O)C2O1 (stereo not drawn),6.34 µM
11,OC(CCN1CCCCC1)c1ccc(-c2ccccc2)cc1 (stereo not drawn),> 20 µM (inactive)
12,C[C@@H]1CN([C@@H](C)CO)C(=O)c2c(c3ccccc3n2C)-c2ccccc2CO[C@@H]1CN(C)Cc1cccc(C(F)(F)F)c1,> 20 µM (inactive)
13,O=C(Cc1ccccc1)N1CC[C@@H]2[C@H]1c1cc(C#Cc3cccc(F)c3)ccc1N[C@@H]2CO,10.8 µM
14,O=C(C1CCC1)N1CCc2cc(S(=O)(=O)N3CCCCC3)ccc21,2.65 µM
15,CC1=C(C#N)c2nc(N)c(C#N)c(C)c2/C1=C\c1ccccc1,8.93 µM
16,C[C@@H]1CN([C@H](C)CO)C(=O)c2ccccc2-c2ccccc2CO[C@@H]1CN(C)C(=O)c1cc(Cl)cc(Cl)c1,8.71 µM
17,OC1CC2CCC(C1)N2CCCN1c2ccccc2Sc2ccc(Cl)cc21 (stereo not drawn),10.6 µM
18,O=C(Nc1ccccc1)N1CC(=O)N2[C@H](CO)[C@@H](c3ccc(C#CC4CCCCC4)cc3)[C@H]2C1,> 20 µM (inactive)
19,CCCCCCCCCCCCCCCC[n+]1ccccc1,1.55 µM
20,Cc1noc(C)c1S(=O)(=O)N(C)C[C@H]1OCc2ccccc2-c2c(n(C)c3ccccc23)C(=O)N([C@@H](C)CO)C[C@H]1C,10.1 µM
21,COc1ccc(CN(CCC(c2ccccc2)c2ccc(OC(C)C)cc2)C(=O)CCl)cc1OC (stereo not drawn),2.54 µM

row,Compound,AC50
1,COc1ccc2c3c(n(C)c2c1)[C@H](CO)N(C(C)=O)CC31CN(Cc2ccc(Cl)cc2)C1,> 20 µM (inactive)
2,O=C1c2c(O)ccc(O)c2C(=O)c2c(NCCNCCO)ccc(NCCNCCO)c21,5.78 µM
3,Cc1noc(C)c1S(=O)(=O)Nc1ccc2c(c1)C(=O)N([C@H](C)CO)C[C@H](C)[C@@H](CN(C)C(=O)Nc1cccc3ccccc13)OCCCC[C@H](C)O2,> 20 µM (inactive)
4,COc1cc(C(C)C)c2c(c1)S(=O)(=O)N(COc1cc(=O)n3cccc(OCCN4CCCCC4)c3n1)C2=O,10.5 µM
5,C[C@@H]1CN([C@@H](C)CO)C(=O)c2ccccc2-c2ccccc2CO[C@@H]1CN(C)Cc1ccccc1C(F)(F)F,> 20 µM (inactive)
6,CCCNC(=O)N1[C@H](C#N)[C@H](c2ccc(C3=CCCCC3)cc2)[C@@H]1CO,> 20 µM (inactive)
7,Cc1ccc(-c2cc(C(=O)N3CC(C)OC(C)C3)c3ccccc3n2)o1 (stereo not drawn),> 20 µM (inactive)
8,O=C(Nc1ccccc1F)N1CCCCN2[C@H](CO)[C@H](c3ccc(/C=C/c4ccccc4)cc3)[C@H]2C1,> 20 µM (inactive)
9,CN1C(=O)/C(=N\OC(=O)c2cccc3ccccc23)c2ccccc21,4.04 µM
10,N#C[C@H]1[C@@H](c2ccc(C#CC3CCCCC3)cc2)[C@@H](CO)N1C(=O)Nc1ccc(F)cc1,> 20 µM (inactive)
11,COc1ccc(/C=C2/CCC(CN3CCOCC3)C2=O)cc1 (stereo not drawn),7.4 µM
12,C=C1CC(Cn2cc(Br)c(=O)[nH]c2=O)(c2ccc(-c3ccccc3)cc2)OC1=O (stereo not drawn),6.59 µM
13,COc1ccc(/C=N/Nc2ncccc2[N+](=O)[O-])c(OC)c1,5.79 µM
14,COc1ccc(/C=C\c2nc(=O)c3ccccc3o2)cc1,6.79 µM
15,CN(C)c1ccc(C=c2c3cc(O)ccc3n3c2cc(-c2ccccc2)[n+]3C)cc1,10.8 µM
16,O=C(Nc1ccc([N+](=O)[O-])cc1Cl)c1cc(Cl)ccc1O,> 7 µM (inactive)
17,CC(C)CCCCCCCCCCCCC(=O)NCC(=O)NC1C(O)C(O)C(Nc2ncnc3nc[nH]c23)OC1C(O)CO (stereo not drawn),9.02 µM
18,C[C@@H]1O[C@@H](O[C@H]2C[C@@H](O)[C@]3(CO)[C@H]4[C@H](O)C[C@]5(C)[C@@H](C6COC(=O)C6)CC[C@]5(O)[C@@H]4CC[C@]3(O)C2)[C@H](O)[C@H](O)[C@H]1O (stereo partly drawn),1.87 µM
19,CCN(CC)CCCNc1nc2ccccc2c2[nH]c3ccc(OC)cc3c12,6.93 µM
20,O=C1/C(=C/c2ccccc2)C[C@@]2(O)C3Cc4ccc(O)c5c4[C@@]2(CCN3CC2CC2)[C@H]1O5,2.6 µM
21,COc1ccc(S(=O)(=O)Nc2ccc3c(c2)C(=O)N([C@H](C)CO)C[C@@H](C)[C@H](CN(C)Cc2ccc(C(F)(F)F)cc2)OCCCC[C@@H](C)O3)cc1,8.94 µM

row,Compound,AC50
1,COC(=O)C12OCC34C(CC5C(C)=C(O)C(=O)CC5(C)C3C(O)C1O)OC(=O)C(OC(=O)C=C(C)C)C24 (stereo not drawn),3.11 µM
2,N#C[C@@H]1[C@H](c2ccc(C#CC3CCCCC3)cc2)[C@H](CO)N1C(=O)Nc1ccc(F)cc1,> 20 µM (inactive)
3,COc1ccc(S(=O)(=O)Nc2ccc3c(c2)C(=O)N([C@H](C)CO)C[C@@H](C)[C@@H](CN(C)Cc2ccc(C(F)(F)F)cc2)OCCCC[C@H](C)O3)cc1,> 20 µM (inactive)
4,Cn1cnc(CCNC(=O)C[C@@H]2CC[C@@H]3[C@H](COC[C@@H](O)CN3C(=O)Nc3ccc(C(F)(F)F)cc3)O2)c1,> 20 µM (inactive)
5,C[C@H](CO)N1C[C@H](C)[C@H](CN(C)CC2CCCCC2)OCCCC[C@H](C)Oc2ccc(NC(=O)Nc3ccc(C(F)(F)F)cc3)cc2C1=O,> 20 µM (inactive)
6,CC(=O)OC1C(=O)OCC23CCC4(C)OC4C2OC2CC(OC(=O)C=CC=CC(=O)OCCC1C)C3(C)C21CO1 (stereo not drawn),> 7 µM (inactive)
7,CC[N+]1(C)CCC(O)(c2ccc(OC)cc2)C(C(=O)c2ccc(OC)cc2)C1 (stereo not drawn),5.1 µM
8,N#C[C@@H]1[C@H](c2ccc(C#CC3CCCC3)cc2)[C@H](CO)N1C(=O)Cc1ccccn1,> 20 µM (inactive)
9,O=C(c1ccc(-c2ccc([N+](=O)[O-])cc2)o1)N1CCCC(C(F)(F)F)C1 (stereo not drawn),> 20 µM (inactive)
10,CCCC(=O)NC1=C(Cl)C(=O)c2ccccc2C1=O,1.12 µM
11,c1cc(-c2cnn3cc(-c4ccc(OCCN5CCCCC5)cc4)cnc23)ccn1,1.44 µM
12,CC(C)Cc1ccc(C(C)CC2=CCC(CN(C)C)C2=O)cc1 (stereo not drawn),3.42 µM
13,Cc1cc(C)nc(Sc2ncnc(N)c2[N+](=O)[O-])n1,> 20 µM (inactive)
14,C[C@@H]1CCCCO[C@H](CN(C)CC2CCCCC2)[C@H](C)CN([C@@H](C)CO)C(=O)c2cc(NC(=O)Nc3ccc(C(F)(F)F)cc3)ccc2O1,4.91 µM
15,C[C@@H]1CN([C@@H](C)CO)C(=O)c2c(c3ccccc3n2C)-c2ccccc2CO[C@H]1CN(C)Cc1cccc(C(F)(F)F)c1,3.94 µM
16,O=C1C=CC2C3C(=O)N(c4ccccc4)C(=O)C3C1N2Cc1ccccc1 (stereo not drawn),8.98 µM
17,C[C@H]1CN([C@@H](C)CO)C(=O)c2c(c3ccccc3n2C)-c2ccccc2CO[C@@H]1CN(C)S(=O)(=O)c1ccc([N+](=O)[O-])cc1,> 20 µM (inactive)
18,Cc1cc(C(=O)COC(=O)c2ccco2)c(C)n1Cc1ccco1,> 20 µM (inactive)
19,CC(C)OC(=O)c1cn(Cc2c(F)cccc2F)c2sc(-c3ccc(NC(=O)C(C)C)cc3)c(CN(C)Cc3ccccc3)c2c1=O,> 20 µM (inactive)
20,CC(C)(C)c1cc(C=C(C#N)C#N)cc(C(C)(C)C)c1O,> 20 µM (inactive)
21,Cc1ccsc1C(=O)OCC(=O)c1cc(C)n(CC2CCCO2)c1C (stereo not drawn),> 20 µM (inactive)

row,Compound,AC50
1,c1ccc2sc(-c3ccc4c(c3)OCO4)nc2c1,5.19 µM
2,CCSc1ccc(-c2cc(NC=O)c3ncc(-c4cccc(C(=O)N(C)C)c4)n3c2)cc1,> 20 µM (inactive)
3,COCC(=O)N1[C@H](C#N)[C@H](c2ccc(C#Cc3ccccc3F)cc2)[C@H]1CO,11.5 µM
4,N#C[C@H]1[C@H](c2ccc(C#CC3CCCCC3)cc2)[C@H](CO)N1C(=O)Nc1ccc(F)cc1,> 20 µM (inactive)
5,C[C@@H]1CN([C@H](C)CO)C(=O)c2ccccc2-c2ccccc2CO[C@@H]1CN(C)Cc1ccccc1C(F)(F)F,6.93 µM
6,COc1ccc(C(=O)O/N=C2\C(=O)N(C)c3ccccc32)cc1,2 µM
7,CC(NCC(O)COCCC12CC3CC(CC(C3)C1)C2)c1ccccc1 (stereo not drawn),6.49 µM
8,NCCOc1ccc(C23CC4CC(CC(C4)C2)C3)cc1,4.9 µM
9,Cn1cc(C2=C(c3cn(CCCSC(=N)N)c4ccccc34)C(=O)NC2=O)c2ccccc21,0.388 µM
10,CN(C)c1ccc(C(=C2C=CC(=[N+](C)C)C=C2)c2ccc(N(C)C)cc2)cc1,0.492 µM
11,Cc1noc(C)c1S(=O)(=O)Nc1ccc2c(c1)CC(=O)N([C@@H](C)CO)C[C@@H](C)[C@@H](CN(C)Cc1ccc(Oc3ccccc3)cc1)O2,> 20 µM (inactive)
12,OCC1OC(n2cnc3cc(Cl)c(Cl)cc32)C(O)C1O (stereo not drawn),> 20 µM (inactive)
13,COC(=O)C[C@](O)(CCCC(C)(C)O)C(=O)O[C@@H]1C(OC)=C[C@]23CCCN2CCc2cc4c(cc2[C@H]13)OCO4,> 20 µM (inactive)
14,Oc1c(Cl)cc(Cl)c(Cl)c1Cc1c(O)c(Cl)cc(Cl)c1Cl,10.2 µM
15,CC(C)[C@H](CO)Nc1nc(Nc2cccc(Cl)c2)c2ncn(C(C)C)c2n1,2.86 µM
16,C[C@H]1O[C@@H](O[C@H]2[C@@H](O)C[C@H](O[C@H]3[C@@H](O)C[C@H](O[C@H]4CC[C@]5(C)C6C[C@@H](O)[C@]7(C)[C@@H](C8=CC(=O)OC8)CC[C@]7(O)C6CC[C@@H]5C4)O[C@@H]3C)O[C@@H]2C)C[C@H](O)[C@@H]1O (stereo partly drawn),2.71 µM
17,C[C@H]1CN([C@@H](C)CO)C(=O)c2c(c3ccccc3n2C)-c2ccccc2CO[C@@H]1CN(C)Cc1cccc(C(F)(F)F)c1,4.21 µM
18,O=C(NCCC(c1ccccc1)c1ccco1)c1cccs1 (stereo not drawn),> 20 µM (inactive)
19,COC(=O)c1ccccc1-c1c2ccc(=N)cc-2oc2cc(N)ccc12,> 20 µM (inactive)
20,O=C(C1CC1)N1C[C@@H]2N[C@H](C1)[C@@H]2c1ccc(-c2ccncc2)cc1,> 20 µM (inactive)
